Assay results published in US20100168050A1, “COMPOUNDS HAVING ANTIANGIOGENIC ACTIVITY” (MEDESTEA INTERNAZIONALE S.P.A, priority 2004, published 2010).

Tests used:
[1] = tested on: human promyelocytic leukemia HL60 cells; assay: HL60 apoptosis/necrosis, annexin V-FITC and PI staining; format: cell-based; conditions: oATP 300 microM versus PPADS 50 microM and KN62 10 microM
Protocol: In the second series of experiments, we studied the differences in the apoptosis induction on human promyelocytic leukemia HL60 cells by ATP and by the inhibitors of the P2X7 receptors. Apoptotic cells and necrotic cells were analyzed by staining the cells with annexin V and propidium iodide (PI) (BD Pharmingen apoptosis kit, San Diego, Calif.). Briefly, an aliquot of 10^5 cells was incubated with annexin V-fluorescein isothiocyanate (FITC) and PI for 15 minutes at room temperature in the dark. The cells were immediately analyzed by FACScalibur (Becton Dickinson, Heidelberg, Germany). The emission/excitation wavelengths were 530/488 nm for annexin V FITC (FL1) and 640 nm/488 nm for PI (FL2). The necrotic cells were annexin V- and PI-positive, whereas apoptotic cells were annexin V-positive and PI-negative. The percentage of cells stained in each quadrant was quantified using the cellQuest software (BD Bioscience, San Josew, Calif.). […] FIG. 11 summarizes the effects of the different treatments on the apoptosis/necrosis induction in the HL60 cells.

[2] = tested on: RMA wild type (wt) murine lymphoma T cell line; assay: Cell apoptosis assay, annexin V/PI FACS; format: cell-based, mouse
Protocol: RMA wild type (wt) murine lymphoma T cell line (ATCC) was grown in RPMI 1640 supplemented with 10% heat inactivated fetal bovine serum, 100 U/ml penicillin, 100 microg/ml streptomycin.
Apoptosis was evaluated by FACS analysis, after staining with annexin-V FITC-conjugate to show the exposure of phosphatidyl serine on the external side of plasma membranes, and with propidium iodide (PI).
Two thousand RMA wt cells and lymphocytes were treated with or without different concentrations of oATP for 24 and 48 hours. The cells were then washed with PBS with Ca++ and Mg++ and stained.
Ten thousand cell/sample were analysed and the percentage of annexin V/PI positive cells was calculated with FCS-express software (DE NOVO Software).

macrophage cell lines = conditions: Murgia et al. 1993; cited from earlier work
[3] = tested on: Human endothelial Cells (HUVEC); assay: Proliferation assay, HUVEC counted in Burker chamber; format: cell-based
Protocol: Human endothelial Cells (HUVEC) were isolated from umbilical vein, counted and seeded in a constant number in a 96-well plate. The cells were cultured as described (Jaffe, E. A. (1984) Biology of Endothelial Cells, Martinus Nighoff Publisher, Boston, USA, pp. 1-260), with or without (control) VEGF (50 ng/ml), in the presence of o-ATP (100 μM), and o-ATP+VEGF. After 24 hours cultivation with or without stimulus, the cells were washed and counted with an optical microscope using a Burker chamber. The results are reported in FIG. 1 and represent the mean±SD of 10 experiments.

[4] = tested on: PBMC transendothelial migration through a HUVEC monolayer; assay: Transendothelial migration assay, PBMC through HUVEC monolayer; format: cell-based, human
Protocol: VEGF is a prototypic angiogenetic factor which induces endothelial cell proliferation, angiogenesis and capillary permeability. The latter is evidenced by the assay of transendothelial migration. It is known that VEGF increases transendothelial migration. Migration assay was performed using a Transwell double chamber system (5 micrometer polycarbonate membrane). HUVEC (5×10^4 cells/well) were seeded on the filter, in the presence or absence of TNFα (200 U/ml) and oATP 500 microM. Freshly obtained PMBC (peripheral blood mononuclear cells) by means of fycoll from buffy-coat were added in the upper compartment and allowed to migrate over night to the lower chamber which contained RPMI and 10% fetal calf serum. […] Data represent mean±SEM of 7 experiments.

[5] = tested on: RMA cells (T-cell lymphoma); assay: Tumor growth after subcutaneous RMA cell injection in C57BL/6 mice; format: in vivo, mouse
From the text: RMA cells were derived from the Rausher leukemia virus-induced mouse T-cell lymphoma RBL-5 of B6 origin and maintained in RPMI 1640 medium, supplemented with fetal bovine serum, 1% penicillin/streptomycin and 1% glutamine (complete medium).
(§1) C57BL/6 female mice weighing about 18-20 g (8 week old) were used. The cells were washed twice with 0.9% NaCl and subcutaneously injected in each mouse in a volume of 100 microliters containing 7×10^4 cells. After 10 days from RMA cell injection, we treated the mice with oATP. Five groups of mice were studied (each of 7 mice): 1) controls, untreated; 2) locally (subcutaneously) (sc) treated with 0.5 mg of oATP; 3) locally (sc) treated with 1 mg oATP; 4) intraperitoneally treated with 1 mg oATP; 5) locally (sc) treated with 1 mg oATP for 3 days only.
(§2) The mice were observed until the 20th day from the tumor inoculation: they were weighed daily and the size of the tumor mass was daily measured.

[6] = tested on: TNFalpha receptor 1 (TNFR1) on HUVEC; assay: Cytofluorometric assay of TNFalpha receptor expression on endothelial cells; format: cell-based, human
From the text: In addition, oATP was cytofluorometrically assayed for its ability to modulate the expression of TNFalpha receptors on endothelial cells. As reported in the FIG. 9a, the use of human TNFalpha (100 U/ml) improved the expression of the TNFalpha receptor 1 (TNFR1) on HUVEC. […] However, oATP was able to downregulate the TNFalpha-induced increased expression of TNFR1.

[7] = Body weight of RMA tumor-bearing mice during treatment; format: in vivo, mouse; conditions: during the different oATP treatments (0.5 or 1 mg sc, 1 mg ip)
Protocol: as §1, §2

[8] = tested on: lymphocytes from buffy-coat (PMBC), activated or not with PHA; assay: Cell apoptosis assay, annexin V/PI FACS; format: cell-based; conditions: oATP at high concentrations
Protocol: Lymphocytes were obtained from a buffy-coat by a fycoll gradient and depleted from monocytes by adherence. Lymphocytes were activated with Phytohaemoagglutinin A mitogen (PHA). Apoptosis was evaluated by FACS analysis, after staining with annexin-V FITC-conjugate to show the exposure of phosphatidyl serine on the external side of plasma membranes, and with propidium iodide (PI). Two thousand RMA wt cells and lymphocytes were treated with or without different concentrations of oATP for 24 and 48 hours. The cells were then washed with PBS with Ca++ and Mg++ and stained. Ten thousand cell/sample were analysed and the percentage of annexin V/PI positive cells was calculated with FCS-express software (DE NOVO Software).

[9] = tested on: microglia cells expressing P22/P2X7; conditions: Ferrari et al. 1997; cited from earlier work
[10] = tested on: human umbilical vein endothelial cells (HUVEC); assay: HUVEC cell growing number, crystal violet absorbance at 595 nm; format: cell-based
Protocol: HUVEC were isolated from human umbilical cord by collagenase treatment and cultured in 1% gelatine-coated flasks using endotoxin-free Medium 199, containing 20% heat-inactivated fetal bovine serum, 1% bovine retinal-derived growth factor, 90 microg/ml heparin, 100 IU/ml penicillin and 100 microg/ml streptomycin. All experiments were carried out with HUVEc at the passage 1-4.
(§3) We used oATP at the concentration of 500 microM. HUVEC were treated with oATP over night, washed and fixed with glutaraldeide 2% in PBS. The cells were colored with crystal violet 0.1%, washed and dried. The dye solubilization was performed with acetic acid 10% and the absorbance was measured spectrophotometrically at 595 nm, using a microplate reader. The optical density was proportional to the number of cells.
as §3, with “In” for “We used oATP at”, “first series” for “concentration”, “experiments we studied the proliferation of human umbilical vein endothelial cells (HUVEC), obtained as previously described (1). The” for “500 microM.”, “each of the compounds for 36 hours,” for “oATP over night,”

RMA wt cells = assay: Cell cycle analysis, PI staining, FACScan; format: cell-based, mouse
Protocol: RMA wt cells were treated with different concentrations of oATP for 24 and 48 hours, then fixed for at least four hours in ice-cold 70% ethanol. Cells were stained with a solution containing NP-40, RNase and PI and cell cycle distribution was detected using FACScan (Becton Dickinson, San Jose, Calif.) and analyzed with FCS-express software.
Cell cycle progression of RMA wt cell line treated with different concentrations of oATP for 24 or 48 hours.

[11] = tested on: rat paw inflammation (CFA); conditions: WO 02/11737; cited from earlier work
[12] = group 3: locally (sc) 1 mg oATP

Nc1ncnc2c1ncn2[C@@H](C=O)O[C@@H](C=O)COP(=O)(O)OP(=O)(O)OP(=O)(O)O [oATP, adenosine-5′-triphosphate-2′,3′-dialdehyde]
cell apoptosis induction on HL60 [1]: at better extent with respect to PPADS and KN62
percentage of AnnexinV/PI positive cells ([2]; RMA wt, oATP 1 mM, 48 hours): strongly increases
apoptosis of RMA cells ([2]; oATP at high concentrations): able to induce apoptosis
ATP-induced permeabilization of the plasma membrane (macrophage cell lines): able to block
effect on HUVEC proliferative capacity compared with vasostatin ([3]; in vitro, HUVEC): higher than that induced by vasostatin
proliferative capacity of HUVEC ([3]; o-ATP 100 μM, 24 hours, even in the presence of a mitogen (VEGF 50 ng/ml)): significant reduction
non-stimulated PBMC transendothelial migration ([4]; addition of oATP, no TNFα): inhibited
TNFα-induced transendothelial migration of PBMC ([4]; oATP 500 microM, TNFα 200 U/ml, over night): significantly reduces
consistency of the tumor mass obtained in 20 days [5, 12]: less solid than the tumor mass obtained in the other groups
tumor growth at 20 days from RMA cell injection [5, 12]: less evident than that observed in the other groups
tumor mass (arbitrary units) ([5]; group 3: locally (sc) 1 mg oATP, three days from the beginning of the treatment (until the 14th day)): did not significantly grow
tumor mass (arbitrary units) ([5]; group 5: locally (sc) 1 mg oATP for 3 days only, three days from the beginning of the treatment): did not significantly grow
tumor growth ([5]; local continuous treatment with 1 mg oATP): significantly slowing the tumor growth
TNFalpha-induced increased expression of TNFR1 ([6]; human TNFalpha 100 U/ml plus oATP): downregulate
expression of TNFR1 on HUVEC ([6]; oATP alone): did not modify such expression
body weights of the mice [7]: No significant differences
apoptosis of lymphocytes [8]: not of lymphocytes
IL-1β release (dependent on LPS) [9]: selectively inhibited
cell growing number (HUVEC proliferation) ([10]; 36 hours, ATP 3 mM, oATP 300 microM, PPADS 50 microM, KN62 10 microM): maximal reduction
cell growing number (optical density) ([10]; oATP 500 microM over night): significantly reduced
% G0/G1 (RMA wt cells; oATP 0.1 μM, 24 h): 48%
% G2/M (RMA wt cells; oATP 0.1 μM, 24 h): 19%
% S (RMA wt cells; oATP 0.1 μM, 24 h): 24%
% subG1 (RMA wt cells; oATP 0.1 μM, 24 h): 9%
% G0/G1 (RMA wt cells; oATP 0.1 μM, 48 h): 50%
% G2/M (RMA wt cells; oATP 0.1 μM, 48 h): 22%
% S (RMA wt cells; oATP 0.1 μM, 48 h): 24%
% subG1 (RMA wt cells; oATP 0.1 μM, 48 h): 4%
% G0/G1 (RMA wt cells; oATP 1 μM, 24 h): 38%
% G2/M (RMA wt cells; oATP 1 μM, 24 h): 10%
% S (RMA wt cells; oATP 1 μM, 24 h): 29%
% subG1 (RMA wt cells; oATP 1 μM, 24 h): 23%
% G0/G1 (RMA wt cells; oATP 1 μM, 48 h): 52%
% G2/M (RMA wt cells; oATP 1 μM, 48 h): 26%
% S (RMA wt cells; oATP 1 μM, 48 h): 19%
% subG1 (RMA wt cells; oATP 1 μM, 48 h): 3%
% G0/G1 (RMA wt cells; oATP 20 μM, 48 h): 50%
% G2/M (RMA wt cells; oATP 20 μM, 48 h): 19%
% S (RMA wt cells; oATP 20 μM, 48 h): 23%
% subG1 (RMA wt cells; oATP 20 μM, 48 h): 8%
% G0/G1 (RMA wt cells; oATP 0.1 mM, 24 h): 44%
% G2/M (RMA wt cells; oATP 0.1 mM, 24 h): 5%
% S (RMA wt cells; oATP 0.1 mM, 24 h): 20%
% subG1 (RMA wt cells; oATP 0.1 mM, 24 h): 31%
% G0/G1 (RMA wt cells; oATP 0.1 mM, 48 h): 33%
% G2/M (RMA wt cells; oATP 0.1 mM, 48 h): 20%
% S (RMA wt cells; oATP 0.1 mM, 48 h): 33%
% subG1 (RMA wt cells; oATP 0.1 mM, 48 h): 14%
% G0/G1 (RMA wt cells; oATP 1 mM, 24 h): 16%
% G2/M (RMA wt cells; oATP 1 mM, 24 h): 3%
% S (RMA wt cells; oATP 1 mM, 24 h): 6%
% subG1 (RMA wt cells; oATP 1 mM, 24 h): 75%
% G0/G1 (RMA wt cells; oATP 1 mM, 48 h): 44%
% G2/M (RMA wt cells; oATP 1 mM, 48 h): 7%
% S (RMA wt cells; oATP 1 mM, 48 h): 25%
% subG1 (RMA wt cells; oATP 1 mM, 48 h): 24%
effect on CFA-induced unilateral rat paw inflammation [11]: anti-inflammatory and analgesic effect
